Laboratory results from PMC12040169 (PLOS Biology, 2025).

Assay: in vitro
Details: human, hela cells

Compound	viability at 28.5 h, 10 µM
Nc1nonc1OCC(COc1nonc1N)(COc1nonc1N)COc1nonc1N [CBK011044]	85.6%
O=P(O)(O)CCCc1ccccc1 [CBK012021]	80.5%
CC(N)Cc1cn(C)c2ccccc12 (stereo not drawn) [CBK012030C]	83.8%

Same assay, conditions: human, hela cells, % viability

Compound	viability at 28.5 h, 10 µM
CC1COCC(C)N1c1ccc2nnc(-c3ccc(C(F)(F)F)cc3)n2n1 (stereo not drawn) [CBK009548]	81.7%
COC(=O)C(Nc1cccc(Cl)c1)(c1cc(OC)c(O)c(OC)c1)C(F)(F)F (stereo not drawn) [CBK009591]	96.6%
COCCOCCOc1ccccc1OCCOCCOC [CBK009636]	89%
CN(C)CCN(C)c1cc(C(F)(F)F)nc(NCc2ccc(Cl)cc2)n1 [CBK009668]	93%
FC(F)(F)C1CN(C2CCCCC2)C(=S)S1 (stereo not drawn) [CBK009719]	84.2%
COc1ccc(C[C@@]23CCC(=O)C[C@@H]2N(C)CC3)cc1 [CBK009720]	102%
O=c1[nH]c2cc(NCCO)c([N+](=O)[O-])cc2[nH]1 [CBK009794]	93.2%
Cc1nc(-c2cc(Cl)c(Cl)s2)cs1 [CBK009801]	84.2%
CC/C(=N\C(N)=O)c1ccccc1 [CBK009865]	82.9%
CC(C)Oc1cccc2cccc(C(O)CN(C)C)c12 (stereo not drawn) [CBK009892]	98.5%
O=C1CC2(CCCCC2)C(C(=O)O)N1 (stereo not drawn) [CBK009895]	114%
CC1(C)C(=O)N2CCN=C2c2ccccc21 [CBK009903]	78.6%
COC(=O)c1ccc2oc(-c3cc(C(O)CNC(C)(C)C)ccc3OC(C)C)cc(=O)c2c1 (stereo not drawn) [CBK009944C]	85%
O=C(c1ccccc1)C1(CO)COCc2nccn21 (stereo not drawn) [CBK009980]	88.7%
CN(C)c1cc(=O)c2cc3c(cc2o1)CCC3 [CBK010017]	67.2%
CCOCCN(CCOCC)c1nnc2ccc(Cl)nn12 [CBK010024]	99.6%
OC(Cn1ccnc1)C1CCCCC1 (stereo not drawn) [CBK010092]	78.3%
CN1C(/C=N/O)=C(O)c2ccccc2S1(=O)=O [CBK010098]	94.1%
O=C1NC(Nc2ccc(SCCN3CCOCC3)cc2)c2ccccc21 (stereo not drawn) [CBK010123]	93.6%
COc1cc(C(=O)c2ccc(Cl)cc2)cc(Br)c1OCCN1CCOCC1 [CBK010131C]	96.5%
CCNC(=O)C1=C(C(=O)NCC)N2C(=NC(C)(C)c3ccccc32)S1 [CBK010172]	102%

Compound	viability at 28.5 h, 10 µM
CCCCC1(COC(C)=O)OC(=O)Nc2ccc(Br)cc21 (stereo not drawn) [CBK010195]	91.1%
COc1cc2c(cc1S(N)(=O)=O)C(=O)CCC2 [CBK010234]	92.2%
Cn1c(SCCN2CCOCC2)nnc1-c1cccs1 [CBK010243]	89.3%
CCCN1CCN(c2ncc(CNS(=O)(=O)c3ccc(Cl)cc3)cn2)CC1 [CBK010261]	101%
O=S1(=O)CCCN1c1ccc2[nH]ncc2c1 [CBK010263]	102%
CCOC(=O)N1COC[C@@H]1C(=O)O [CBK010379]	81.5%
CC(=O)NC[C@H]1CN(c2ccc(C#N)c(C)c2)C(=O)O1 [CBK010393]	107%
CCN1CCC2(CC1)Nc1cc(Cl)c(S(N)(=O)=O)cc1S(=O)(=O)N2 [CBK010418C]	97.7%
CCC(Cc1c[nH]c2ccccc12)NC(=N)N (stereo not drawn) [CBK010430]	102%
COc1ccc(NS(=O)(=O)c2ccc(C)cc2)cn1 [CBK010484]	85.8%
COC(=O)C(C)CSc1ccc(C(C)(C)C)cc1 (stereo not drawn) [CBK010499]	107%
CC(C)(O)Cc1ccccc1C(=O)NC1CCCCCC1 [CBK010502]	81.7%
CN(C)[C@H]1CCCC[C@@H]1n1c(-c2ccc(Cl)c(Cl)c2)n[nH]c1=O [CBK010566]	114%
O=c1[nH]nc2n1-c1ccccc1OC2 [CBK010583]	104%
CNC(=O)Oc1cc(C)c(SC)c(C)c1 [CBK010586]	77.2%
O=C(c1ccccn1)c1ccccn1 [CBK010601]	89%
COc1ccc(C2Sc3ccccc3N(CCN(C)C)C(=O)C2OC(C)=O)cc1 (stereo not drawn) [CBK010647]	98%
NC(=O)CSc1ccccc1 [CBK010649]	91.2%
CCC(=O)NC1Cc2cccc3c2N(CCC3)C1=O (stereo not drawn) [CBK010667]	113%
NS(=O)(=O)c1cccc2c1CC1(CC2)OCCO1 [CBK010703]	84.6%
O=C1OCC(O)=C1C(c1ccccc1)C1CC1 (stereo not drawn) [CBK010731]	91%

Compound	viability at 28.5 h, 10 µM
Cc1ncc(C(O)c2ccc(Cl)cc2)c2c1OC(C)(C)OC2 (stereo not drawn) [CBK010749]	111%
O=C(c1ccco1)c1cnc2ccccn2c1=O [CBK010791]	109%
Cc1nn(Cc2nnc(-c3cccs3)o2)c(C)c1Br [CBK010809]	87.7%
COC(=O)C1C2CCN(CC2)C1SCc1cccc(C(F)(F)F)c1 (stereo not drawn) [CBK010829C]	87.1%
CCC(=O)Oc1ccc(/N=C2/NC(C)(C)O2)cc1 [CBK010922]	87.6%
N/C(CS(=O)(=O)Cc1ccc(F)cc1)=N/O [CBK010956]	89.2%
CCCc1cc(=O)n2c(n1)SCOC2 [CBK010967]	108%
COC(=O)C1CC(O)CC1C(=O)N1CCCC1 (stereo not drawn) [CBK011029]	89.6%
COc1ccc(-c2c[n+]3ccccc3c(=O)[nH]2)cc1 [CBK011078B]	93.8%
O=c1cc(NCCCN2CCN(Cc3ccccc3)CC2)c2ccccc2o1 [CBK011079]	81%
O=S(=O)(Cc1csc(N2CCOCC2)n1)c1ccccn1 [CBK011137]	90.1%
CC[n+]1c(C(C)(C)C)csc1NCC1CC1 [CBK011154B]	106%
CCOC(=O)c1ccc(C2=NCCC2)[nH]1 [CBK011191]	95.1%
O=C(O)c1c[nH]c2ccc(S(=O)(=O)N3CCOCC3)cc12 [CBK011237]	97.3%
O=C(c1ccc([N+](=O)[O-])cc1)C12CN3CN(CN(C3)C1)C2 [CBK011238]	87.1%
NC(=S)c1c(Cl)cc(C(F)(F)F)cc1Cl [CBK011349]	105%
CC(=O)Nc1nc2c3ccccc3n(C(C)=O)c2s1 [CBK011360]	110%
CC1=CCC2(CC1)COC(C(C)(C)CN(C)C)OC2 (stereo not drawn) [CBK011369]	91.7%
Fc1ccc(NC(=S)NCC2CC2)c(F)c1 [CBK011398]	100%
CN1CC(CO)CCC1Cc1c[nH]c2ccccc12 (stereo not drawn) [CBK011468]	92.4%
CCC1=C(C)C(=O)N(C(=O)NCCc2ccc(S(=O)(=O)NC(=O)NC3CCC(C)CC3)cc2)C1 (stereo not drawn) [CBK011561]	93.2%

Compound	viability at 28.5 h, 10 µM
CCCCC[C@H](O)CCC1[C@H](O)C[C@@H]2Cc3c(cccc3OCC(=O)O)C[C@H]12 (stereo partly drawn) [CBK011575]	98.3%
Nc1nnc(-c2cccc(Cl)c2Cl)c(N)n1 [CBK011590]	85.8%
NC(=O)CN1CC(O)CC1=O (stereo not drawn) [CBK011649]	86.1%
CC(C)(C)NCC(O)COc1cccc2c1C[C@H](O)[C@H](O)C2 (stereo partly drawn) [CBK011678]	102%
CN1C2CCC1CC(OC(c1ccccc1)c1ccccc1)C2 (stereo not drawn) [CBK011710G]	99.6%
c1ccc(C2CCCNC2)cc1 (stereo not drawn) [CBK011753]	100%
COc1cnc(C(=O)NCCc2ccc(S(=O)(=O)NC(=O)NC3CCCCC3)cc2)cn1 [CBK011761]	104%
CC1Cc2cc(C(O)(CCN(C)C)c3ccccc3)ccc2O1 (stereo not drawn) [CBK011764]	110%
Cn1c(C(=O)NCCc2ccc(S(=O)(=O)NC(=O)NC3CCCCC3)cc2)cc2ccccc21 [CBK011876]	128%
O=C(NCCc1ccc(S(=O)(=O)NC(=O)NC2CCCCC2)cc1)NC1CCCCC1 [CBK011926]	88.4%
CN(C)CC(Oc1ccccc1)C(=O)c1ccccc1 (stereo not drawn) [CBK011935C]	101%
COc1ccc2nc3cc(Cl)ccc3c(NCCO)c2c1 [CBK011939]	43.8%
CCCOc1ccc(C(=O)C(CN(CC)CC)Oc2ccccc2)cc1 (stereo not drawn) [CBK011944C]	94.7%
C[N+](C)(C)Cc1ccccc1 [CBK011977I]	109%
CCN(CC)CC(C)C(O)(c1ccccc1)c1ccccc1 (stereo not drawn) [CBK012065C]	95%
O=C(Nc1ccccc1C(=O)O)c1ccccc1O [CBK012116]	89%
N=C(N)NCCCc1c[nH]c2ccccc12 [CBK012139G]	101%
CCN(CC)CC(C)C(O)(c1ccc(Cl)cc1)c1ccc(Cl)cc1 (stereo not drawn) [CBK012146C]	103%
CN(C)C(=O)Cc1ccc(-c2ccccc2)cc1 [CBK012162]	94.2%
Cc1cc2nc(CC(=O)NN)[nH]c2cc1C [CBK012180]	89.3%

Same assay, conditions: human, hela cells, % viability, bulk resorufin, single well

Compound	viability at 28.5 h, 10 µM
CC(C)N(CCc1cc2ccccc2o1)C(C)C [CBK011518C]	113%
